Test results as given in patent publication US12404262B2 (priority 2021, dated 2025).
In brackets after ≈: the same amount, converted by molar mass. Read-outs that look alike come from different tables or passages of the source.

How the values were obtained:
[1] = Solubility in simulated intestinal fluids (FaSSIF/FeSSIF); details: 25 °C, thermodynamic from solid
[2] = 0.1N HCl, 1.0% DMSO, 24-hour incubation at ambient temperature, maximum theoretical 100 μM, first value of the cell
[3] = 1×PBS buffer (pH 7.4), 1.0% DMSO, 24-hour incubation at ambient temperature, maximum theoretical 100 μM, second value of the cell
[4] = fasted state simulated intestinal fluid (FaSSIF), fassif
[5] = fed state simulated intestinal fluid (FeSSIF), fessif

SMILES | pH 2 solubility [2] | pH 7 solubility [3] | solubility [1, 4] | solubility [1, 5] | pH 7 solubility | pH 2 solubility (pH 2)
CC(C)(C#Cc1ccc(-c2ccc(Cl)c3c(N(C(=O)C(=O)O)S(C)(=O)=O)nn(CC(F)(F)F)c23)c([C@H](Cc2cc(F)cc(F)c2)NC(=O)Cn2nc(C(F)(F)F)c3c2C(F)(F)[C@@H]2C[C@H]32)n1)S(C)(=O)=O [Compound 16] | 1 μM | 92 μM | 710 µg/mL (≈ 682 µM) | 497 µg/mL (≈ 478 µM) | – | –
CC(C)(C#Cc1ccc(-c2ccc(Cl)c3c(N(COC(=O)C(=O)O)S(C)(=O)=O)nn(CC(F)(F)F)c23)c([C@H](Cc2cc(F)cc(F)c2)NC(=O)Cn2nc(C(F)(F)F)c3c2C(F)(F)[C@@H]2C[C@H]32)n1)S(C)(=O)=O [Compound 20, 2-((N-(4-chloro-7-(2-((S)-1-(2-((3bS,4aR)-5,5-difluoro-3-(trifluoromethyl)-3b,4,4a,5-tetrahydro-1H-cyclopropa[3,4]cyclopenta[1,2-c]pyrazol-1-yl)acetamido)-2-(3,5-difluorophenyl)ethyl)-6-(3-methyl-3-(methylsulfonyl)but-1-yn-1-yl)pyridin-3-yl)-1-(2,2,2-trifluoroethyl)-1H-indazol-3-yl)methylsulfonamido)methoxy)-2-oxoacetic acid] | 13 μM | 100 μM | 448 µg/mL (≈ 419 µM) | 454 µg/mL (≈ 424 µM) | – | –
C[C@@H](N)C(=O)OCN(c1nn(CC(F)(F)F)c2c(-c3ccc(C#CC(C)(C)S(C)(=O)=O)nc3[C@H](Cc3cc(F)cc(F)c3)NC(=O)Cn3nc(C(F)(F)F)c4c3C(F)(F)[C@@H]3C[C@H]43)ccc(Cl)c12)S(C)(=O)=O [Compound 26, (N-(4-chloro-7-(2-((S)-1-(2-((3bS,4aR)-5,5-difluoro-3-(trifluoromethyl)-3b,4,4a,5-tetrahydro-1H-cyclopropa[3,4]cyclopenta[1,2-c]pyrazol-1-yl)acetamido)-2-(3,5-difluorophenyl)ethyl)-6-(3-methyl-3-(methylsulfonyl)but-1-yn-1-yl)pyridin-3-yl)-1-(2,2,2-trifluoroethyl)-1H-indazol-3-yl)methylsulfonamido)methyl D-alaninate] | 23 μM | 2 μM | 13 µg/mL (≈ 12.2 µM) | 89 µg/mL (≈ 83.2 µM) | – | –
CC(C)(C#Cc1ccc(-c2ccc(Cl)c3c(N(C(=O)NCCNC(=N)N)S(C)(=O)=O)nn(CC(F)(F)F)c23)c([C@H](Cc2cc(F)cc(F)c2)NC(=O)Cn2nc(C(F)(F)F)c3c2C(F)(F)[C@@H]2C[C@H]32)n1)S(C)(=O)=O [Compound 76] | – | – | 7 µg/mL (≈ 6.38 µM) | 68 µg/mL (≈ 62 µM) | – | –
CC(C)(C#Cc1ccc(-c2ccc(Cl)c3c(N(C(=O)OCC(=O)O)S(C)(=O)=O)nn(CC(F)(F)F)c23)c([C@H](Cc2cc(F)cc(F)c2)NC(=O)Cn2nc(C(F)(F)F)c3c2C(F)(F)[C@@H]2C[C@H]32)n1)S(C)(=O)=O [Compound 117, 2-(((4-chloro-7-(2-((S)-1-(2-((3bS,4aR)-5,5-difluoro-3-(trifluoromethyl)-3b,4,4a,5-tetrahydro-1H-cyclopropa[3,4]cyclopenta[1,2-c]pyrazol-1-yl)acetamido)-2-(3,5-difluorophenyl)ethyl)-6-(3-methyl-3-(methylsulfonyl)but-1-yn-1-yl)pyridin-3-yl)-1-(2,2,2-trifluoroethyl)-1H-indazol-3-yl)(methylsulfonyl)carbamoyl)oxy)acetic acid] | 9 μM | 10 μM | – | – | – | –
CC(C)(C#Cc1ccc(-c2ccc(Cl)c3c(N(C(=O)O[C@H](C(=O)O)[C@H](O)C(=O)O)S(C)(=O)=O)nn(CC(F)(F)F)c23)c([C@H](Cc2cc(F)cc(F)c2)NC(=O)Cn2nc(C(F)(F)F)c3c2C(F)(F)[C@@H]2C[C@H]32)n1)S(C)(=O)=O [Compound 118, (2S,3S)-2-(((4-chloro-7-(2-((S)-1-(2-((3bS,4aR)-5,5-difluoro-3-(trifluoromethyl)-3b,4,4a,5-tetrahydro-1H-cyclopropa[3,4]cyclopenta[1,2-c]pyrazol-1-yl)acetamido)-2-(3,5-difluorophenyl)ethyl)-6-(3-methyl-3-(methylsulfonyl)but-1-yn-1-yl)pyridin-3-yl)-1-(2,2,2-trifluoroethyl)-1H-indazol-3-yl)(methylsulfonyl)carbamoyl)oxy)-3-hydroxysuccinic acid] | 1/1 μM | 1/1 μM | – | – | – | –
CC(C)(C#Cc1ccc(-c2ccc(Cl)c3c(N(C(=O)O[C@@H](CC(=O)O)C(=O)O)S(C)(=O)=O)nn(CC(F)(F)F)c23)c([C@H](Cc2cc(F)cc(F)c2)NC(=O)Cn2nc(C(F)(F)F)c3c2C(F)(F)[C@@H]2C[C@H]32)n1)S(C)(=O)=O [Compound 119, (S)-2-(((4-chloro-7-(2-((S)-1-(2-((3bS,4aR)-5,5-difluoro-3-(trifluoromethyl)-3b,4,4a,5-tetrahydro-1H-cyclopropa[3,4]cyclopenta[1,2-c]pyrazol-1-yl)acetamido)-2-(3,5-difluorophenyl)ethyl)-6-(3-methyl-3-(methylsulfonyl)but-1-yn-1-yl)pyridin-3-yl)-1-(2,2,2-trifluoroethyl)-1H-indazol-3-yl)(methylsulfonyl)carbamoyl)oxy)succinic acid] | 1/1 μM | 1/1 μM | – | – | – | –
C[C@@H](CC(=O)O)OC(=O)N(c1nn(CC(F)(F)F)c2c(-c3ccc(C#CC(C)(C)S(C)(=O)=O)nc3[C@H](Cc3cc(F)cc(F)c3)NC(=O)Cn3nc(C(F)(F)F)c4c3C(F)(F)[C@@H]3C[C@H]43)ccc(Cl)c12)S(C)(=O)=O [Compound 120, (S)-3-(((4-chloro-7-(2-((S)-1-(2-((3bS,4aR)-5,5-difluoro-3-(trifluoromethyl)-3b,4,4a,5-tetrahydro-1H-cyclopropa[3,4]cyclopenta[1,2-c]pyrazol-1-yl)acetamido)-2-(3,5-difluorophenyl)ethyl)-6-(3-methyl-3-(methylsulfonyl)but-1-yn-1-yl)pyridin-3-yl)-1-(2,2,2-trifluoroethyl)-1H-indazol-3-yl)(methylsulfonyl)carbamoyl)oxy)butanoic acid] | 1 μM | 9 μM | – | – | – | –
CC(C)(C#Cc1ccc(-c2ccc(Cl)c3c(N(C(=O)OCCC(=O)O)S(C)(=O)=O)nn(CC(F)(F)F)c23)c([C@H](Cc2cc(F)cc(F)c2)NC(=O)Cn2nc(C(F)(F)F)c3c2C(F)(F)[C@@H]2C[C@H]32)n1)S(C)(=O)=O [Compound 121, 3-(((4-chloro-7-(2-((S)-1-(2-((3bS,4aR)-5,5-difluoro-3-(trifluoromethyl)-3b,4,4a,5-tetrahydro-1H-cyclopropa[3,4]cyclopenta[1,2-c]pyrazol-1-yl)acetamido)-2-(3,5-difluorophenyl)ethyl)-6-(3-methyl-3-(methylsulfonyl)but-1-yn-1-yl)pyridin-3-yl)-1-(2,2,2-trifluoroethyl)-1H-indazol-3-yl)(methylsulfonyl)carbamoyl)oxy)propanoic acid] | 1 μM | 21 μM | – | – | – | –
CC(C)(C#Cc1ccc(-c2ccc(Cl)c3c(N(C(=O)OC(CCC(=O)O)CCC(=O)O)S(C)(=O)=O)nn(CC(F)(F)F)c23)c([C@H](Cc2cc(F)cc(F)c2)NC(=O)Cn2nc(C(F)(F)F)c3c2C(F)(F)[C@@H]2C[C@H]32)n1)S(C)(=O)=O [Compound 124, 4-(((4-chloro-7-(2-((S)-1-(2-((3bS,4aR)-5,5-difluoro-3-(trifluoromethyl)-3b,4,4a,5-tetrahydro-1H-cyclopropa[3,4]cyclopenta[1,2-c]pyrazol-1-yl)acetamido)-2-(3,5-difluorophenyl)ethyl)-6-(3-methyl-3-(methylsulfonyl)but-1-yn-1-yl)pyridin-3-yl)-1-(2,2,2-trifluoroethyl)-1H-indazol-3-yl)(methylsulfonyl)carbamoyl)oxy)heptanedioic acid] | – | – | – | – | 2/83 μM | 2/83 μM
CC(C)(C#Cc1ccc(-c2ccc(Cl)c3c(N(C(=O)O[C@H]4C[C@@H](NC(=N)N)C4)S(C)(=O)=O)nn(CC(F)(F)F)c23)c([C@H](Cc2cc(F)cc(F)c2)NC(=O)Cn2nc(C(F)(F)F)c3c2C(F)(F)[C@@H]2C[C@H]32)n1)S(C)(=O)=O [Compound 127, cis-3-guanidinocyclobutyl (4-chloro-7-(2-((S)-1-(2-((3bS,4aR)-5,5-difluoro-3-(trifluoromethyl)-3b,4,4a,5-tetrahydro-1H-cyclopropa[3,4]cyclopenta[1,2-c]pyrazol-1-yl)acetamido)-2-(3,5-difluorophenyl)ethyl)-6-(3-methyl-3-(methylsulfonyl)but-1-yn-1-yl)pyridin-3-yl)-1-(2,2,2-trifluoroethyl)-1H-indazol-3-yl)(methylsulfonyl)carbamate] | 8 μM | 1 μM | – | – | – | –
CC(C)(C#Cc1ccc(-c2ccc(Cl)c3c(N(C(=O)O[C@H]4C[C@H](NC(=N)N)C4)S(C)(=O)=O)nn(CC(F)(F)F)c23)c([C@H](Cc2cc(F)cc(F)c2)NC(=O)Cn2nc(C(F)(F)F)c3c2C(F)(F)[C@@H]2C[C@H]32)n1)S(C)(=O)=O [Compound 128, trans-3-guanidinocyclobutyl (4-chloro-7-(2-((S)-1-(2-((3bS,4aR)-5,5-difluoro-3-(trifluoromethyl)-3b,4,4a,5-tetrahydro-1H-cyclopropa[3,4]cyclopenta[1,2-c]pyrazol-1-yl)acetamido)-2-(3,5-difluorophenyl)ethyl)-6-(3-methyl-3-(methylsulfonyl)but-1-yn-1-yl)pyridin-3-yl)-1-(2,2,2-trifluoroethyl)-1H-indazol-3-yl)(methylsulfonyl)carbamate] | 5 μM | 1 μM | – | – | – | –
CC(C)(C#Cc1ccc(-c2ccc(Cl)c3c(N(C(=O)OCCCN)S(C)(=O)=O)nn(CC(F)(F)F)c23)c([C@H](Cc2cc(F)cc(F)c2)NC(=O)Cn2nc(C(F)(F)F)c3c2C(F)(F)[C@@H]2C[C@H]32)n1)S(C)(=O)=O [Compound 129, 3-aminopropyl (4-chloro-7-(2-((S)-1-(2-((3bS,4aR)-5,5-difluoro-3-(trifluoromethyl)-3b,4,4a,5-tetrahydro-1H-cyclopropa[3,4]cyclopenta[1,2-c]pyrazol-1-yl)acetamido)-2-(3,5-difluorophenyl)ethyl)-6-(3-methyl-3-(methylsulfonyl)but-1-yn-1-yl)pyridin-3-yl)-1-(2,2,2-trifluoroethyl)-1H-indazol-3-yl)(methylsulfonyl)carbamate] | 54 μM | 7 μM | – | – | – | –
